These results are taken from patent US6747027B1, “Thiol sulfonamide metalloprotease inhibitors” (Pharmacia Corporation, priority 1996, dated 2004).

One assay deals with T1, recombinant human MMP-13 (Homo sapiens, UniProt P45452).
T1 construct: made in house
Kind of assay: In vitro metalloprotease inhibition, fluorogenic peptide assay (MMP-13). The class given is biochemical. To be noted: recombinant human MMP-13, APMA activated; fluorogenic MCA peptide substrate 4 uM; pH 7.5, room temperature. Put shortly:
(§1)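 APMA-activated recombinant human MMP-13 (baculovirus-expressed) and MMP-1 (HT-1080-expressed) preincubated with inhibitor 10 min at room temperature in Tris/NaCl/CaCl2 buffer, pH 7.5, 1% DMSO final. MCA-PLGL-Dpa-AR-NH2 substrate at 4 uM final; cleavage read as fluorescence (ex 328/em 415 nm). IC50 from fluorescence reduction versus inhibitor concentration.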

The target in a further assay is T2, recombinant human MMP-1 (Homo sapiens, UniProt P03956).
T2 construct: made in house; host or cells: transfected HT-1080 cells (provided by Dr. Howard Welgus, Washington University)
T2 sequence (P03956 100-469): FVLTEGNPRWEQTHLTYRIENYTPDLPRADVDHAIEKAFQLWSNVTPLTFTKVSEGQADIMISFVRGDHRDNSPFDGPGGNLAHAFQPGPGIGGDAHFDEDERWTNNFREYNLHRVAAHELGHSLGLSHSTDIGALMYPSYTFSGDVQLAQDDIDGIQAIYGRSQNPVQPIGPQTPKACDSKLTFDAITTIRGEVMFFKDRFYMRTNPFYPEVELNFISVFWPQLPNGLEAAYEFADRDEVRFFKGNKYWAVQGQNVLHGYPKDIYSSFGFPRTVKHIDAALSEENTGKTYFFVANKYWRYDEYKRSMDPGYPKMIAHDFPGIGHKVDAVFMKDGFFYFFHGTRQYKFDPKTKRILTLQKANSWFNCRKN
Kind of assay: In vitro metalloprotease inhibition, fluorogenic peptide assay (MMP-1). To be noted: recombinant human MMP-1, APMA activated; fluorogenic MCA peptide substrate 4 uM; pH 7.5, room temperature. Type of assay: biochemical. Put shortly:
as §1

For assay [1], the system named is angiogenesis in the cornea of a mouse. Put plainly: In vivo angiogenesis assay (corneal micropocket assay, bFGF pellet). To be noted: C57Bl/6 female mouse, 50 mg/kg bid, po, scored at day five. The procedure: The study of angiogenesis depends on a reliable and reproducible model for the stimulation and inhibition of a neovascular response. The corneal micropocket assay provides such a model of angiogenesis in the cornea of a mouse. See, A Model of Angiogenesis in the Mouse Cornea; Kenyon, B M, et al., Investigative Ophthalmology & Visual Science, July 1996, Vol. 37, No. 8.
In this assay, uniformly sized Hydron™ pellets containing bFGF and sucralfate were prepared and surgically implanted into the stroma mouse cornea adjacent to the temporal limbus. […]
Mice were dosed on a daily basis for the duration of the assay. […] At day five, the degree of angiogenic inhibition was scored by viewing the neovascular progression with a slit lamp microscope.
The mice were anesthetized and the studied eye was once again proptosed. The maximum vessel length of neovascularization, extending from the limbal vascular plexus toward the pellet was measured. In addition, the contiguous circumferential zone of neovascularization was measured as clock hours, where 30 degrees of arc equals 1 clock hour. The area of angiogenesis was calculated as [formula]
where the vessel length is measured in millimeters.
The studied mice were thereafter compared to control mice and the difference in the area of neovascularization was recorded.

As to `C[C@H](CS)N(C)S(=O)(=O)c1ccc(-c2ccccn2)s1` [Example 156], the IC50 on recombinant human MMP-13 was 0.0073 µM; at recombinant human MMP-1, 1.07 µM.

On to `CCCCOc1ccc(S(=O)(=O)N[C@@H](CS)C(=O)NC(C)C)cc1` [Example 166], for which the values for the IC50 at recombinant human MMP-13 and on recombinant human MMP-1 were 0.88 µM and > 10 µM, respectively.

Turning to `CCCCOc1ccc(S(=O)(=O)N[C@@H](CS)C(=O)NC)cc1` [Example 171], the results for the concentration for half-maximal inhibition (IC50) at recombinant human MMP-13 and at recombinant human MMP-1 were 0.03 µM and > 10 µM, respectively.

In the case of `CCCCOc1ccc(S(=O)(=O)N[C@@H](CS)C(=O)NCCN2CCOCC2)cc1` [Example 172], the IC50 was 0.25 µM at recombinant human MMP-13 and > 10 µM on recombinant human MMP-1.

Consider `CCCCOc1ccc(S(=O)(=O)N(Cc2ccncc2)[C@@H](CS)C(N)=O)cc1` [Example 175], for which the concentration for half-maximal inhibition (IC50) at recombinant human MMP-13 amounted to 0.0007 µM; at recombinant human MMP-1, 0.4 µM.

Consider `CCCCOc1ccc(S(=O)(=O)N(CCN2CCOCC2)[C@@H](CS)C(=O)NC)cc1` [Example 176], for which the figures for the IC50 at recombinant human MMP-13 and at recombinant human MMP-1 were 0.0025 µM and 2.9 µM, respectively.

With `CCCCOc1ccc(S(=O)(=O)N[C@@H](CS)C(=O)N(C)C)cc1` [Example 178], the values for the IC50 on recombinant human MMP-13 and on recombinant human MMP-1 were 0.3 µM and > 10 µM, respectively.

For `CCCCOc1ccc(S(=O)(=O)N[C@@H](CS)C(=O)NCC(=O)O)cc1` [Example 179], the 50% inhibitory concentration (IC50) at recombinant human MMP-13 was found to be 0.0235 µM; on recombinant human MMP-1 it was 2 µM.

For `CCCCOc1ccc(S(=O)(=O)N[C@@H](CS)C(=O)N[C@@H](Cc2ccccc2)C(=O)NC)cc1` [Example 180], the IC50 at recombinant human MMP-13 is 0.7 µM; on recombinant human MMP-1 it was > 10 µM.

On to `CCCCOc1ccc(S(=O)(=O)N[C@@H](CS)C(=O)O)cc1` [Example 181], for which the IC50 at recombinant human MMP-13 is 3 µM; on recombinant human MMP-1, > 10 µM.

For the molecule `CCCCOc1ccc(S(=O)(=O)N[C@@H](CS)C(=O)N[C@@H](Cc2ccccc2)C(N)=O)cc1` [Example 186], the figures for the IC50 at recombinant human MMP-13 and at recombinant human MMP-1 were 1.1 µM and > 10 µM, respectively.

With `C[C@H](CS)NS(=O)(=O)c1ccc([N+](=O)[O-])cc1` [Example 192], the half-inhibitory concentration (IC50) at recombinant human MMP-13 and at recombinant human MMP-1 was > 10 µM in each case.

On to `CCC(C)(C)c1ccc(S(=O)(=O)N[C@H](C)CS)cc1` [Example 193], for which the IC50 at recombinant human MMP-13 and on recombinant human MMP-1 was > 10 µM each time.

Consider `CC(=O)Nc1ccc(S(=O)(=O)N[C@@H](CS)C(N)=O)cc1` [Example 199], for which the IC50 on recombinant human MMP-13 is 0.35 µM; on recombinant human MMP-1, > 10 µM.

On to `CCCCOc1ccc(S(=O)(=O)N[C@@H](CS)C(N)=O)cc1` [Example 201], for which the values for the IC50 on recombinant human MMP-13 and on recombinant human MMP-1 were 0.0033 µM and 7 µM, respectively.

Take `CC(=O)Nc1ccc(S(=O)(=O)N(C)[C@@H](CS)C(N)=O)cc1` [Example 203]: the figures for the 50% inhibitory concentration (IC50) at recombinant human MMP-13 and on recombinant human MMP-1 were 0.17 µM and > 10 µM, respectively.

With `CCCCOc1ccc(S(=O)(=O)N(CCC(C)C)[C@@H](CS)C(N)=O)cc1` [Example 208], the IC50 at recombinant human MMP-13 was 0.19 µM; at recombinant human MMP-1, > 10 µM.

In the case of `CCCCOc1ccc(S(=O)(=O)N[C@@H](CS)C(=O)NCc2ccccc2)cc1` [Example 209], the 50% inhibitory concentration (IC50) at recombinant human MMP-13 was 0.05 µM; at recombinant human MMP-1 it was > 10 µM.

Consider `NC(=O)[C@H](CSSC[C@@H](C(N)=O)N(CCN1CCOCC1)S(=O)(=O)c1ccc(Oc2ccccc2)cc1)N(CCN1CCOCC1)S(=O)(=O)c1ccc(Oc2ccccc2)cc1` [Example 213], for which the values for the IC50 on recombinant human MMP-13 and on recombinant human MMP-1 were 0.0015 µM and > 10 µM, respectively.

Take `CC(=O)SC[C@@H](C(N)=O)N(CCN1CCOCC1)S(=O)(=O)c1ccc(Sc2ccccc2)cc1` [Example 216]: the IC50 at recombinant human MMP-13 is 0.2 µM; on recombinant human MMP-1, > 10 µM.

As for `C[C@H](CS)NS(=O)(=O)c1ccc(/N=N/c2ccc(N(C)C)cc2)cc1` [Example 217], the figures for the concentration for half-maximal inhibition (IC50) on recombinant human MMP-13 and on recombinant human MMP-1 were 0.0015 µM and > 10 µM, respectively.

Regarding `NC(=O)[C@H](CS)N(CCN1CCOCC1)S(=O)(=O)c1ccc(NC(=O)c2ccccc2)cc1` [Example 218, N-(4-benzoylamino)phenylsulfonyl-N-(4-(morpholino-ethyl))-L-cysteine amide], the “inhibition of area of neovascularization versus control mice” value in assay [1] turned out to be 37%. Further, the IC50 on recombinant human MMP-13 is 0.0011 µM; on recombinant human MMP-1, > 10 µM.

For the molecule `NC(=O)[C@H](CS)N(CCN1CCOCC1)S(=O)(=O)c1ccc(NC(=O)c2ccc(Cl)cc2)cc1` [Example 220, N-(4-(4′-chlorobenzoyl)amino)phenylsulfonyl-N-(4-(morpholinoethyl))-L-cysteine amide], the concentration for half-maximal inhibition (IC50) at recombinant human MMP-13 came out at 0.0014 µM; at recombinant human MMP-1, 7 µM.

As for `NC(=O)[C@H](CS)N(CCN1CCOCC1)S(=O)(=O)c1ccc(NC(=O)c2ccc(Br)cc2)cc1` [Example 222, N-(4-(4′-bromobenzoyl)amino)phenylsulfonyl-N-(4-(morpholinoethyl))-L-cysteine amide], the IC50 amounted to 0.0011 µM at recombinant human MMP-13 and 5.3 µM on recombinant human MMP-1.

As to “N-(1R-Mercaptomethyl)propyl-N-methyl-4-(n-butoxy)benzenesulfonamide [Example 23C]”, the results for the half-inhibitory concentration (IC50) at recombinant human MMP-13 and on recombinant human MMP-1 were 0.15 µM and 4 µM, respectively.

Consider “N-(2-Mercapto-1R-methylethyl)-N-[2-(4-morpholino)ethyl]-4-(thiophenyl)benzenesulfonamide Hydrochloride [Example 91D]”, for which the results for the IC50 at recombinant human MMP-13 and on recombinant human MMP-1 were 0.0007 µM and > 10 µM, respectively.

As for “N-(2-Mercapto-1S-methylethyl)-N-(phenylmethyl)-4-methoxybenzenesulfonamide [Example 13C]”, the values for the half-maximal inhibitory concentration (IC50) at recombinant human MMP-13 and at recombinant human MMP-1 were 2 µM and > 10 µM, respectively.

For “N-(2-mercapto-1R-methylethyl)-4-methylbenzenesulfonamide [Example 68]”, the values for the half-inhibitory concentration (IC50) on recombinant human MMP-13 and at recombinant human MMP-1 were 1.72 µM and > 10 µM, respectively.

As to “N-(2-mercapto-1R-methylethyl)-4-n-pentyl)benzenesulfonamide [Example 71]”, the IC50 on recombinant human MMP-13 was 0.04 µM; on recombinant human MMP-1 it was > 10 µM.

As to “N-(2-mercapto-1R-methylethyl)-4-n-propyl)benzenesulfonamide [Example 70]”, the IC50 is 0.44 µM on recombinant human MMP-13 and > 10 µM on recombinant human MMP-1.
